Data published in PubChem BioAssay AID248 (DTP/NCI, 2004).
Values joined by “and” are separate entries in the source; they are usually repeats but may differ in a detail not shown here. Equal values may be shown once. Inconclusive results and toxic doses are left out. Cut-off read from the data, not from the text of the source: active = T/C of 150% or more; inactive = T/C below 125%.

Tested on: L1210 leukemia ip in BDF1 mice, survival T/C
Assay: NCI In Vivo Anticancer Drug Screen. Data for tumor model L1210 Leukemia (intraperitoneal) in B6D2F1 (BDF1) mice
Conditions: endpoint: mean survival time, higher = longer survival
Summary of the method: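 Tumor was transplanted into mice, which were then dosed with test compound or vehicle alone. Survival was recorded for each group, and the treated figure was expressed relative to the control figure.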

[1] = dose: 100.0 mg/kg/injection, schedule: Q01DX009 (ip), vehicle: Klucel (hydroxypropylcellulose) (HPC)
[2] = dose: 200.0 mg/kg/injection, schedule: Q01DX009 (ip), vehicle: Klucel (hydroxypropylcellulose) (HPC)
[3] = dose: 400.0 mg/kg/injection, schedule: Q01DX009 (ip), vehicle: Klucel (hydroxypropylcellulose) (HPC)
[4] = dose: 12.5 mg/kg/injection, schedule: Q01DX009 (ip), vehicle: saline with Tween-80
[5] = dose: 25.0 mg/kg/injection, schedule: Q01DX009 (ip), vehicle: saline with Tween-80
[6] = dose: 50.0 mg/kg/injection, schedule: Q01DX009 (ip), vehicle: saline with Tween-80
[7] = dose: 100.0 mg/kg/injection, schedule: Q01DX009 (ip), vehicle: saline with Tween-80
[8] = dose: 200.0 mg/kg/injection, schedule: Q01DX009 (ip), vehicle: saline with Tween-80
[9] = dose: 100.0 mg/kg/injection, schedule: Q04DX003 (ip), vehicle: Klucel (hydroxypropylcellulose) (HPC)
[10] = dose: 200.0 mg/kg/injection, schedule: Q04DX003 (ip), vehicle: Klucel (hydroxypropylcellulose) (HPC)
[11] = dose: 400.0 mg/kg/injection, schedule: Q04DX003 (ip), vehicle: Klucel (hydroxypropylcellulose) (HPC)
[12] = dose: 100.0 mg/kg/injection, schedule: Q04DX003 (ip), vehicle: saline with Tween-80
[13] = dose: 200.0 mg/kg/injection, schedule: Q04DX003 (ip), vehicle: saline with Tween-80
[14] = dose: 400.0 mg/kg/injection, schedule: Q04DX003 (ip), vehicle: saline with Tween-80
[15] = dose: 100.0 mg/kg/injection, schedule: Q04DX003 (ip), vehicle: saline
[16] = dose: 200.0 mg/kg/injection, schedule: Q04DX003 (ip), vehicle: saline
[17] = dose: 400.0 mg/kg/injection, schedule: Q04DX003 (ip), vehicle: saline

Measured: T/C

COc1ccc(OC)c(NC(=O)Nc2ccc(C(=O)O)cc2)c1
inactive: [1] 109 % of control | [2] 96 % of control | [3] 96 % of control

IC1CCCOC1[n+]1ccccc1 (stereo not given)
inactive: [4] 102 % of control | dose: 12.5 mg/kg/injection, schedule: Q04DX003 (ip), vehicle: saline with Tween-80 96 % of control | [5] 100 % of control | dose: 25.0 mg/kg/injection, schedule: Q04DX003 (ip), vehicle: saline with Tween-80 104 % of control | [6] 103 % of control | dose: 50.0 mg/kg/injection, schedule: Q04DX003 (ip), vehicle: saline with Tween-80 98 % of control

COc1ccc(C(=O)C/C(=N\N(C(=O)c2ccc(OC)cc2)c2ccccc2)c2ccc(OC)cc2)cc1
inactive: [6] 100 % of control | [7] 93 % of control | [8] 98 % of control

C#CC(C)OCC(C)OC(C)=O (stereo not given)
inactive: dose: 25.0 mg/kg/injection, schedule: Q01DX009 (ip), vehicle: acetone 95 % of control | dose: 50.0 mg/kg/injection, schedule: Q01DX009 (ip), vehicle: acetone 94 % of control | dose: 100.0 mg/kg/injection, schedule: Q01DX009 (ip), vehicle: acetone 99 % of control | dose: 100.0 mg/kg/injection, schedule: Q04DX003 (ip), vehicle: acetone 100 % of control | dose: 150.0 mg/kg/injection, schedule: Q01DX009 (ip), vehicle: saline 115 % of control | dose: 225.0 mg/kg/injection, schedule: Q01DX009 (ip), vehicle: saline 95 % of control | dose: 335.0 mg/kg/injection, schedule: Q01DX009 (ip), vehicle: saline 93 % of control

COc1ccccc1/C=N/NC(=O)c1cccc2ccccc12
inactive: dose: 400.0 mg/kg/injection, schedule: Q01DX001 (ip), vehicle: saline 87 % of control

CCCCN1C(=O)C/C(=C2\CC(=O)N(CCCC)C2=O)C1=O
inactive: [1] 91 % of control | [9] 87 % of control | [2] 94 % of control | [10] 101 % of control | [3] 91 % of control | [11] 94 % of control

CC(=O)Oc1ccc2c(=O)c(-c3ccccc3)c(C)oc2c1
inactive: dose: 100.0 mg/kg/injection, schedule: Q01DX001 (ip), vehicle: other 108 % of control | [12] 100 % of control | dose: 200.0 mg/kg/injection, schedule: Q01DX001 (ip), vehicle: other 111 % of control | [13] 108 % of control | dose: 400.0 mg/kg/injection, schedule: Q01DX001 (ip), vehicle: other 94 % of control | [14] 105 % of control

CC(=O)Nc1ccc2c(c1)[nH]c(=O)c1ccccc12
inactive: dose: 100.0 mg/kg/injection, schedule: Q01DX001 (ip), vehicle: carboxymethylcellulose (CMC) 96 % of control | dose: 200.0 mg/kg/injection, schedule: Q01DX001 (ip), vehicle: carboxymethylcellulose (CMC) 93 % of control | dose: 400.0 mg/kg/injection, schedule: Q01DX001 (ip), vehicle: carboxymethylcellulose (CMC) 96 % of control

CCOC(=O)c1cnc(SC)nc1N(C)C
inactive: [12] 96 % of control | [13] 96 % of control

Nc1ccc(Nc2ccc([N+](=O)[O-])cc2[N+](=O)[O-])cc1
inactive: dose: 50.0 mg/kg/injection, schedule: Q01DX009 (ip), vehicle: gum acacia 99 % of control | dose: 50.0 mg/kg/injection, schedule: Q04DX003 (ip), vehicle: gum acacia 100 % of control | dose: 100.0 mg/kg/injection, schedule: Q01DX009 (ip), vehicle: gum acacia 94 % of control | dose: 100.0 mg/kg/injection, schedule: Q04DX003 (ip), vehicle: gum acacia 101 % of control | dose: 200.0 mg/kg/injection, schedule: Q01DX009 (ip), vehicle: gum acacia 94 % of control | dose: 200.0 mg/kg/injection, schedule: Q04DX003 (ip), vehicle: gum acacia 98 % of control

Cc1ccc(S(=O)(=O)OC2CCC(=O)C3CC4(CCC23)OCCO4)cc1 (stereo not given)
inactive: dose: 100.0 mg/kg/injection, schedule: Q01DX001 (ip), vehicle: saline with Tween-80 91 % of control | dose: 200.0 mg/kg/injection, schedule: Q01DX001 (ip), vehicle: saline with Tween-80 87 % of control | dose: 400.0 mg/kg/injection, schedule: Q01DX001 (ip), vehicle: saline with Tween-80 95 % of control

CNC(=O)Nc1c(C)cccc1C
inactive: [1] 93 % of control | [9] 106 % of control | [2] 93 % of control | [10] 101 % of control | [3] 97 % of control | [11] 98 % of control

Nc1cc(S(=O)(=O)c2ccc(O)c(N)c2)ccc1O
inactive: [7] 105 % of control | [12] 103 % of control | [8] 107 % of control | [13] 104 % of control | dose: 400.0 mg/kg/injection, schedule: Q01DX009 (ip), vehicle: saline with Tween-80 109 % of control | [14] 97 % of control

C/C(=C/c1c(C)[nH]c(=O)[nH]c1=O)C(=O)O
inactive: dose: 100.0 mg/kg/injection, schedule: Q01DX009 (ip), vehicle: saline 92 % of control | [15] 98 % of control | dose: 200.0 mg/kg/injection, schedule: Q01DX009 (ip), vehicle: saline 95 % of control | [16] 104 % of control | [17] 106 % of control

CC1CC(NC(=S)N(C)C)CC(C)(C)C1 (stereo not given)
inactive: dose: 50.0 mg/kg/injection, schedule: Q01DX009 (ip), vehicle: Klucel (hydroxypropylcellulose) (HPC) 92 % of control | [1] 100 % of control | [2] 102 % of control

O=[N+]([O-])c1sc2ccccc2c1O
inactive: [4] 99 % of control | [5] 99 % of control

CCOC(=O)c1c[n]([Hg][n]2cc(C(=O)OCC)c(Nc3ccccc3Br)nc2=O)c(=O)nc1Nc1ccccc1Br
inactive: dose: 3.0 mg/kg/injection, schedule: Q01DX009 (ip), vehicle: Klucel (hydroxypropylcellulose) (HPC) 95 % of control | dose: 6.0 mg/kg/injection, schedule: Q01DX009 (ip), vehicle: Klucel (hydroxypropylcellulose) (HPC) 93 % of control | dose: 6.25 mg/kg/injection, schedule: Q04DX003 (ip), vehicle: Klucel (hydroxypropylcellulose) (HPC) 96 % of control | dose: 12.0 mg/kg/injection, schedule: Q01DX009 (ip), vehicle: Klucel (hydroxypropylcellulose) (HPC) 96 % of control | dose: 12.5 mg/kg/injection, schedule: Q04DX003 (ip), vehicle: Klucel (hydroxypropylcellulose) (HPC) 96 % of control and 103 % of control | dose: 25.0 mg/kg/injection, schedule: Q04DX003 (ip), vehicle: Klucel (hydroxypropylcellulose) (HPC) 88 % of control | dose: 50.0 mg/kg/injection, schedule: Q04DX003 (ip), vehicle: Klucel (hydroxypropylcellulose) (HPC) 100 % of control

CC(=O)OCc1ccc[nH]c1=O
inactive: [15] 104 % of control | [16] 98 % of control | [17] 104 % of control

O=C(Nc1ccc(C(=O)O)cc1)Nc1cccc(C(F)(F)F)c1
inactive: [7] 93 % of control | [8] 87 % of control

O=C1C[C@H]2[C@H](CO)[C@@H](OC(=O)c3ccc(-c4ccccc4)cc3)C[C@H]2O1
inactive: dose: 12.5 mg/kg/injection, schedule: Q01DX009 (ip), vehicle: alcohol 103 % of control | dose: 25.0 mg/kg/injection, schedule: Q01DX009 (ip), vehicle: alcohol 101 % of control | dose: 50.0 mg/kg/injection, schedule: Q01DX009 (ip), vehicle: alcohol 98 % of control

CS(C)(=O)=C/C(=C\C(=O)c1ccccc1)c1ccccc1
inactive: dose: 25.0 mg/kg/injection, schedule: Q04DX003 (ip), vehicle: saline 100 % of control | dose: 50.0 mg/kg/injection, schedule: Q04DX003 (ip), vehicle: saline 103 % of control | [15] 97 % of control

CCOC(OCC)C(=O)C(C#N)c1ccc(C#N)cc1 (stereo not given)
inactive: dose: 3.12 mg/kg/injection, schedule: Q01DX009 (ip), vehicle: DMSO 90 % of control | dose: 6.25 mg/kg/injection, schedule: Q01DX009 (ip), vehicle: DMSO 88 % of control | dose: 12.5 mg/kg/injection, schedule: Q01DX009 (ip), vehicle: DMSO 92 % of control and 88 % of control

COC(=O)Cc1ccc(Br)cc1
inactive: [6] 106 % of control | [7] 98 % of control | [8] 88 % of control

CCOC(=O)c1c(C)[nH]c(C)c1-c1ccccc1
inactive: [9] 112 % of control | [10] 104 % of control | [11] 105 % of control
